Reference: US7314968B2, “Transgenic fish and β-catenin signaling pathway model” (University of Washington, priority 2002, dated 2008)

Legend:
hdl = hdl morpholino injection into one-cell TOPdGFP transgenic zebrafish embryos, in situ hybridization and phenotype; assay type: in vivo
Procedure: (§1) In Situ Hybridizations: In situ hybridization was performed as described previously (Oxtoby and Jowett, 1993). The GFP probe was made by antisense transcription of TOPdGFP, using a T7 promoter present in the construct. The Probe for hdl was made from a full-length clone isolated in our laboratory, subcloned into pCS2+. Probes for pax2.1 (Krauss et al., 1991), tbx6 (Hug et al., 1997), and lef1 (Dorsky et al., 1999) were made as described previously. Images were taken with a Kodak DC290 digital camera and processed with Adobe Photoshop 5.0.
(§2) Morpholino Injections: Morpholino antisense oligonucleotides targeted to lef1 and hdl were obtained from Gene Tools (Corvallis, Oreg.). lef1 MO sequence: 5′- […]-3′ (SE ID NO:3); hdl MO sequence: 5′- […]-3(SEQ ID NO:4).
(§3) Approximately 1 ng of the morpholinos was injected into one-cell homozygous transgenic embryos that were fixed for in situ hybrid-ization at appropriate stages. Injections of control morpholinos produced no effect on TOPdGFP expression.

lef1 = lef1 morpholino injection into one-cell TOPdGFP transgenic zebrafish embryos, in situ hybridization and phenotype; assay type: in vivo
Procedure: as §1, §2, §3

hdl morpholino: Morpholino antisense oligonucleotide targeted to zebrafish hdl, 5′- CTCCGTTTAACTGAGGCATGTTGGC-3 (SEQ ID NO:4), from Gene Tools (all phosphorodiamidate morpholino (PMO))
expression of midbrain marker pax2 (hdl; bud stage): anterior expansion | expression of ventrolateral mesoderm markers spt and tbx6 (hdl; bud stage): no effect | posterior GFP expression (hdl; bud stage): no effect | embryo phenotype (hdl; injection at the one-cell stage, 36 hpf): phenotype indistinguishable from hdl mutant embryos | anterior TOPdGFP expression (hdl; shield stage or bud stage): does not expand

lef1 morpholino: Morpholino antisense oligonucleotide targeted to zebrafish lef1, 5′- CTCCTCCACCTGACAACTGCGGCAT-3′ (SEQ ID NO:3), from Gene Tools (all phosphorodiamidate morpholino (PMO))
embryo phenotype (lef1; 36 hpf): tail truncations and loss of paraxial mesoderm, but normal head development | TOPdGFP expression in the embryo (lef1; bud stage): striking decrease | expression of spt and tbx6 (lef1; bud stage): decreased expression | pax2 expression (lef1; bud stage): no effect
